Source: US4070245A, “Substrate for the quantitative determination of proteolytic enzymes” (Pentapharm A.G., priority 1975, dated 1978)
Structures can show the parent of a compound that is named as a salt. Where a SMILES comes first, the peptide text is derived from it. The star is where a group is joined. pNA = O=[N+]([O-])c1ccc(N*)cc1; Tos = Cc1ccc(S(=O)(=O)*)cc1; Cbz = O=C(OCc1ccccc1)*; Bz = O=C(c1ccccc1)*

B1: human plasmin (Homo sapiens) (protein)
chain 1: VVGGCVAHPHSWPWQVSLRTRFGMHFCGGTLISPEWVLTAAHCLEKSPRPSSYKVILGAHQEVNLEPHVQEIEVSRLFLEPTRKDIALLKLSSPAVITDKVIPACLPSPNYVVADRTECFITGWGETQGTFGAGLLKEAQLPVIENKVCNRYEFLNGRVQSTELCAGHLAGGTDSCQGDSGGPLVCFEKDKYILQGVTSWGLGCARPNKPGVYVRVSRFVTWIEGVMRNN
chain 2: KVYLSECKTGNGKNYRGTMSKTKNGITCQKWSSTSPHRPRFSPATHPSEGLEENYCRNPDNDPQGPWCYTTDPEKRYDYCDILECEEECMHCSGENYDGKISKTMSGLECQAWDSQSPHAHGYIPSKFPNKNLKKNYCRNPDRELRPWCFTTDPNKRWELCDIPRCTTPPPSSGPTYQCLKGTGENYRGNVAVTVSGHTCQHWSAQTPHTHNRTPENFPCKNLDENYCRNPDGKRAPWCHTTNSQVRWEYCKIPSCDSSPVSTEQLAPTAPPELTPVVQDCYHGDGQSYRGTSSTTTTGKKCQSWSSMTPHRHQKTPENYPNAGLTMNYCRNPDADKGPWCFTTDPSVRWEYCNLKKCSGTEASVVAPPPVVLLPDVETPSEEDCMFGNGKGYRGKRATTVTGTPCQDWAAQEPHRHSIFTPETNPRAGLEKNYCRNPDGDVGGPWCYTTNPRKLYDYCDVPQCAAPSFDCGKPQVEPKKCPGR
notes: 0.4 CU/ml of human plasmin

Key:
human ecarin-thrombin = target: T1, human ecarin-thrombin (Homo sapiens, UniProt P00734); assay: Enzymatic release of p-nitroaniline from substrate by human ecarin-thrombin; format: biochemical; conditions: substrate concentration 10^-4 M; pH 8.4, ionic strength 0.15, 37° C
T1 construct: 0.28 NIH/ml of human ecarin-thrombin

[1] = target: batroxobin (thrombin-like enzyme from venom of Bothrops moojeni) (Bothrops atrox, UniProt P04971); format: biochemical; conditions: pH 8.4
human thrombin coagulase = human thrombin coagulase (Homo sapiens, UniProt P00734); assay: Enzymatic release of p-nitroaniline from substrate by human thrombin coagulase (staphylo-thrombin); format: biochemical; conditions: substrate concentration 10^-4 M; pH 8.4, ionic strength 0.15, 37° C
Solubility in water = format: physicochemical; conditions: for solubility: water
human thrombin [2] = target: T2, human thrombin (Homo sapiens, UniProt P00734); assay: Enzymatic release of split product NH2-R2 from chromogenic/fluorogenic substrate by human thrombin; format: biochemical; conditions: in words, from Table 1
T2 construct: 0.56 NIH/ml of human thrombin
Method: The degree of the enzymatic hydrolysis of the substrate, which is proportional to the quantity of p-Nitroaniline formed, can be easily determined by spectrophotometric measurement at 405 nm. […] The conditions are practically the same for the other substrates carrying a p-nitroanilino group as a chromogenic group. The spectrophotometric measurement was therefore, carried out in all cases at 405 nm.
The mixture was pre-incubated for 2 minutes at 37° C. […] The increase in the absorption was measured spectrophotometrically at 405 nm and continuously followed by means of a recording device. The measuring results listed in Tables 1 and 2 were all obtained under the test conditions defined above. The quantity of the formed split product NH2 --R^2 is a measure for the susceptibility of the substrate to the enzymes. […] For determining the quantity (nanomole) of p-napthylamine and 4-methoxy-β-naphthylamine (substrates XII to XV, XVIII and XIX), respectively, formed per minute the samples were irradiated in a fluorescence photometer with light having a wave length of 350 nm. The quantity of the formed split product was determined by measuring the intensity of the light emitted at 420 nm.

human thrombin [3] = target: T2, human thrombin; assay: Km and vmax from Lineweaver-Burk diagram, human thrombin; format: biochemical; conditions: ionic strength 0.15, pH 8.4, 37° C; for Km: tris-imidazole buffer, graphically from Lineweaver-Burk diagram; for vmax: value marked NIH
Method: (§1) As is evident from equation (2) constants Km and k3 determine the activity of the enzyme substrate for a given enzyme. For determining these constants the following procedure is followed:
(§2) The enzyme and the substrate are mixed in a buffer solution, and the reaction is followed spectrophotometrically for 2 to 30 minutes. The concentration of substrate [S] is varied, whereas the enzyme concentration [E] is kept constant. If the extinction (OD) (= optical density) is plotted in a co-ordinate system as a function of time, a curve is obtained the tangent of which (difference in extinction per minute, Δ OD/minute, from which the quantity in μmoles of pNA/min (v) can be calculated) at time zero corresponds to the ideal course of the hydrolysis. By means of this tangent the initial rate of the hydrolysis can be determined.
Km and vmax were determined for the enzymes by means of the LineweaverBurk equation (the Lineweaver-Burk diagram is shown in FIG. 7 of the drawings attached to the specification). […] According to the same principle Km and vmax were determined for the other enzymes. All determinations were carried out in trisimidazole buffer at an ionic strength of 0.15 and a pH of 8.4 at 37° C.

bovine trypsin = target: T3, bovine trypsin (Bos taurus, UniProt P00760); assay: Km and vmax from Lineweaver-Burk diagram, bovine trypsin; format: biochemical; conditions: value marked NF, ionic strength 0.15, pH 8.4, 37° C
T3 construct: 1.8 NF/ml of bovine trypsin
T3 sequence (P00760 24-246): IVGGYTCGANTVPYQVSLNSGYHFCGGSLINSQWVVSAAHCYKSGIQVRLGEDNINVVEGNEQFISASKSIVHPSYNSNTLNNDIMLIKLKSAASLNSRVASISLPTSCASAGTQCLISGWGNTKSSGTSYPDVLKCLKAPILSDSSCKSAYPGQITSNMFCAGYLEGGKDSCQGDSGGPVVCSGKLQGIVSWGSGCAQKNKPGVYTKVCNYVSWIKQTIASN
Method: as §1, §2
(§3) If 1/v is plotted against 1/[S], a Lineweaver-Burk diagram (cf. "Kurzes Lehrbuch der Biochemie" by P. KARSON, Georg Thieme-Verlag, Stuttgart, 1967., p. 70) is obtained from which vmax and Km can be determined graphically. [formula] were determined with N^α-Cbo-Gly-Pro-Arg-pNA.HCl (substrate according to Example 1) for human thrombin, human plasmin and bovine trypsin. Km and vmax were determined for the enzymes by means of the LineweaverBurk equation (the Lineweaver-Burk diagram is shown in FIG. 7 of the drawings attached to the specification). […]

human plasmin = target: T4, human plasmin (Homo sapiens, UniProt P00747); assay: Km and vmax from Lineweaver-Burk diagram, human plasmin; format: biochemical; conditions: value marked CU, ionic strength 0.15, pH 8.4, 37° C
T4 construct: 0.4 CU/ml of human plasmin
Method: as §1, §2, §3

[4] = substrate: Cc1ccc(S(=O)(=O)NCC(=O)N2CCC[C@H]2C(=O)N[C@@H](CCCNC(=N)N)C(=O)Nc2ccc([N+](=O)[O-])cc2)cc1; assay: as above; format: biochemical; conditions: other: human plasmin, tris-imidazole buffer, ionic strength 0.15, pH 8.4, 37° C
Method: as §1, §2, §3

[5] = substrate: N=C(N)NCCC[C@H](NC(=O)[C@@H]1CCCN1C(=O)CNC(=O)OCc1ccccc1)C(=O)Nc1ccc([N+](=O)[O-])cc1; assay: as above; format: biochemical; conditions: other: human plasmin, tris-imidazole buffer, ionic strength 0.15, pH 8.4, 37° C
Method: as §1, §2, §3

Chain of batroxobin (thrombin-like enzyme from venom of Bothrops moojeni) (P04971 25-255 limits assumed): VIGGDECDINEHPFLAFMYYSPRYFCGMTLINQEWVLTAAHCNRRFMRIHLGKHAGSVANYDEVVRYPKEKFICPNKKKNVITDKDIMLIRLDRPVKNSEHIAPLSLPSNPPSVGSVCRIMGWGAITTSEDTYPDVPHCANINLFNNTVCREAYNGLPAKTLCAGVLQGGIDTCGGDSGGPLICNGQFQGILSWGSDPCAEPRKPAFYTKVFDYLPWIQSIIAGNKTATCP

Molecule	Quantity of p-nitroaniline enzymatically split off from the substrate in 1 minute by the quantity of human ecarin-thrombin corresponding to 1 NIH (human ecarin-thrombin) [nmol]	Quantity of p-nitroaniline enzymatically split off from the substrate in 1 minute by the quantity of batroxobin corresponding to 1 NIH [1] [nmol]	Quantity of p-nitroaniline enzymatically split off from the substrate in 1 minute by the quantity of human thrombin coagulase corresponding to 1 NIH (human thrombin coagulase) [nmol]	solubility (Solubility in water) [µg/mL]	susceptibility to human thrombin compared with N^α -Bz-Phe-Val-Arg-pNA.HCl (human thrombin [2])	Km (human thrombin [3]) [µM]	vmax (human thrombin [3]) [µmol/L]	vmax (bovine trypsin) [µmol/L]	vmax (human plasmin) [µmol/L]	also measured
CC(C)[C@H](NC(=O)[C@H](Cc1ccccc1)NC(=O)c1ccccc1)C(=O)N[C@@H](CCCNC(=N)N)C(=O)Nc1ccc([N+](=O)[O-])cc1 [N^α -Bz-Phe-Val-Arg-pNA . HCl, N^α -Bz-Phe-Val-Arg-pNA.HCl, reference compound] (Bz-Phe-Val-Arg-pNA)	30.7	3.26	102	~1000						
CC(C)COC(=O)NCC(=O)N1CCC[C@H]1C(=O)N[C@@H](CCCNC(=N)N)C(=O)Nc1ccc([N+](=O)[O-])cc1 [Substrate XI, n^α -isobutyloxycarbonyl-Gly-Pro-Arg-p-Na.HCl]					much higher					
N=C(N)NCCC[C@H](NC(=O)[C@@H]1CCCN1C(=O)CNS(=O)(=O)c1ccccc1)C(=O)Nc1ccc([N+](=O)[O-])cc1 [Substrate VIII, n^α -benzenesulfonyl-Gly-Pro-Arg-pNA.NCl]					much higher					
Cc1ccc(S(=O)(=O)NCC(=O)N2CCC[C@H]2C(=O)N[C@@H](CCCNC(=N)N)C(=O)Nc2ccc([N+](=O)[O-])cc2)cc1 [Substrate VII, n^α -tos-Gly-Pro-Arg-pNA.HCl] (Tos-Gly-Pro-Arg-pNA)					much higher	17	0.0757	0.0297	0.618	
N=C(N)NCCC[C@H](NC(=O)[C@@H]1CCCN1C(=O)CNC(=O)OCc1ccccc1)C(=O)Nc1ccc([N+](=O)[O-])cc1 [Substrate I, N^α -Cbo-Gly-Pro-Arg-pNA.HCl] (Cbz-Gly-Pro-Arg-pNA)	246.4	15.81	575	> 4000	much higher	57.1	0.0534	0.0427	0.673	solubility in water relative to Bz-Phe-Val-Arg-pNA.HCl (Solubility in water; ratio to prior art thrombin substrate): 4 times
B1										Km [4]: 323 µM; Km [5]: 357 µM
